{
  "source": "patent US7408065B2",
  "about": "“P2X7 receptor antagonists and their use” (AstraZeneca AB, priority 2003, dated 2008)",
  "data": [
    {"values": [
      {"compound": "N[C@H]1CCN(c2ccc3c(C(=O)NCC4CCCCC4)cccc3n2)C1", "note": "[Example 54, 2-[(3S)-3-Amino-1-pyrrolidinyl]-N-(cyclohexylmethyl)-5-quinolinecarboxamide]", "melting point": "127 to 128 °C"},
      {"compound": "O=C(NCC1CCCCC1)c1c(Cl)ccc2nc(N3CC(NCCO)C3)ccc12", "note": "[Example 55, 6-Chloro-N-(cyclohexylmethyl)-2-[3-[(2-hydroxyethyl)amino]-1-azetidinyl]-5-quinolinecarboxamide]", "melting point": "150 to 151 °C"},
      {"compound": "CC(C)(C)OC(=O)N(CCO)[C@H]1CCN(c2ccc3c(NC(=O)CC4CCCCC4)c(Cl)ccc3n2)C1", "note": "[Example 56, [1-[6-Chlor-5-[(cyclohexylacetyl)amino]-2-quinolinyl]-3-pyrrolidinyl](2-hydroxyethyl)-carbamic Acid 1,1-dimethylethyl Ester]", "melting point": "115 to 120 °C"},
      {"compound": "Cc1ccc2ncccc2c1C(=O)NCC1CCCCC1", "note": "[Example 57, N-(Cyclohexylmethyl)-6-methyl-5-quinolinecarboxamide]", "melting point": "165 °C"},
      {"compound": "N[C@H]1CCN(Cc2ccc3c(NC(=O)CC4CCCCC4)c(Cl)ccc3n2)C1", "note": "[Example 59, N-[2-[[(3S)-3-Amino-1-pyrrolidinyl]methyl]-6-chloro-5-quinolinyl]-cyclohexaneacetamide]", "melting point": "160 °C (dec.)"},
      {"compound": "N[C@H]1CCCN(c2ccc3c(NC(=O)CC4CCCCC4)c(Cl)ccc3n2)C1", "note": "[Example 60, N-[2-[(3S)-3-Amino-1-piperidinyl]-6-chloro-5-quinolinyl]-cyclohexaneacetamide]", "melting point": "173 to 176 °C"},
      {"compound": "O=C(CC1CCCCC1)Nc1c(Cl)ccc2nc(N3CCC[C@H](NCCO)C3)ccc12", "note": "[Example 61, N-[6-Chloro-2-[(3S)-3-[(2-hydroxyethyl)amino]-1-piperidinyl]-5-quinolinyl]-cyclohexaneacetamide]", "melting point": "182 to 183 °C"},
      {"compound": "N[C@H]1CCN(c2ccc3c(NC(=O)CCC4CCCC4)c(Cl)ccc3n2)C1", "note": "[Example 62, N-[2-[(3S)-3-Amin-1-pyrrolidinyl]-6-chloro-5-quinlinyl]-cyclopentanepropanamide]", "melting point": "192 to 194 °C"},
      {"compound": "O=C(CCC1CCCC1)Nc1c(Cl)ccc2nc(N3CC[C@H](NCCO)C3)ccc12", "note": "[Example 63, N-[6-Chloro-2-[(3S)-3-[(2-hydroxyethyl)amino]-1-pyrrolidinyl]-5-quinolinyl]-cyclopentanepropanamide]", "melting point": "186 to 188 °C"},
      {"compound": "O=C(CC1CCCCC1)Nc1c(Cl)ccc2nc(N3CCC(n4cn[nH]c4=O)CC3)ccc12", "note": "[Example 64, N-[6-Chloro-2-[4-(1,5-dihydro-5-oxo-4H-1,2,4-triazol-4-yl)-1-piperidinyl]-5-quinolinyl]-cyclohexaneacetamide]", "melting point": "310 to 313 °C"},
      {"compound": "O=C(O)CCCc1ccc2c(NC(=O)CC3CCCCC3)c(Cl)ccc2n1", "note": "[Example 67, 6-Chloro-5-[(cyclohexylacetyl)amino]-2-quinolinebutanoic Acid]", "melting point": "216 to 220 °C"},
      {"compound": "O=C(O)CC1CCN(c2ccc3c(NC(=O)CC4CCCCC4)c(Cl)ccc3n2)CC1", "note": "[Example 68, 1-[6-Chloro-5-[(cyclohexylacetyl)amino]-2-quinolinyl]-4-piperidineacetic Acid]", "melting point": "242 to 244 °C"},
      {"compound": "O=C(O)CCCCc1ccc2c(NC(=O)CC3CCCCC3)c(Cl)ccc2n1", "note": "[Example 70, 6-Chloro-5-[(cyclohexylacetyl)amino]-2-quinolinepentanoic Acid]", "melting point": "199 to 201 °C"},
      {"compound": "O=C(NCC1CCCCC1)c1c(Cl)ccc2nc(N3CCC[C@@H]3C(=O)O)ccc12", "note": "[Example 71, 1-[6-Chloro-5-[[(cyclohexylmethyl)amino]carbonyl]-2-quinolinyl]-D-proline]", "melting point": "157 to 160 °C"},
      {"compound": "O=C(NCCC1CCCCC1)c1c(Cl)ccc2nc(N3CCC(C(=O)O)CC3)ccc12", "note": "[Example 76, 1-[6-Chloro-5-[[(2-cyclohexylethyl)amino]carbonyl]-2-quinolinyl]-4-piperidinecarboxylic Acid]", "melting point": "253 to 256 °C"},
      {"compound": "CC1(CC(=O)Nc2c(Cl)ccc3nc(N4CCC(C(=O)O)CC4)ccc23)CCCCC1", "note": "[Example 79, 1-[6-Chloro-5-[[(1-methylcyclohexyl)acetyl]amino]-2-quinolinyl]-4-piperidinecarboxylic Acid]", "melting point": "210 to 212 °C"},
      {"compound": "O=C(CC1CCCCC1)Nc1c(Cl)ccc2nc(N3CCCC(NCCO)C3)ccc12", "note": "(centres unmarked) [Example 80, N-[6-Chloro-2-[3-[(2-hydroxyethyl)amino]-1-piperidinyl]-5-quinolinyl]-cyclohexaneacetamide]", "melting point": "185 to 186 °C"},
      {"compound": "O=C(CC1CCCCC1)Nc1c(Cl)ccc2nc(N3CCCC3CNCCO)ccc12", "note": "(centres unmarked) [Example 81, N-[6-Chloro-2-[2-[[(2-hydroxyethyl)amino]methyl]-1-pyrrolidinyl]-5-quinolinyl]-cyclohexaneacetamide]", "melting point": "157 to 158 °C"},
      {"compound": "CNC1CCCN(c2ccc3c(NC(=O)CC4CCCCC4)c(Cl)ccc3n2)C1", "note": "(centres unmarked) [Example 82, N-[6-Chloro-2-[3-(methylamino)-1-piperidinyl]-5-quinolinyl]-cyclohexaneacetamide]", "melting point": "158 to 159 °C"},
      {"compound": "CNCC1CCCN1c1ccc2c(NC(=O)CC3CCCCC3)c(Cl)ccc2n1", "note": "(centres unmarked) [Example 83, N-[6-Chloro-2-[2-[(methylamino)methyl]-1-pyrrolidinyl]-5-quinolinyl]-cyclohexaneacetamide]", "melting point": "138 to 145 °C"},
      {"compound": "O=C(O)CN[C@H]1CCN(c2ccc3c(NC(=O)CC4CCCCC4)c(Cl)ccc3n2)C1", "note": "[Example 85, N-[(3S)-1-[6-Chloro-5-[(cyclohexylacetyl)amino]-2-quinolinyl]-3-pyrrolidinyl]-glycine]", "melting point": "257 to 259 °C"},
      {"compound": "Cc1ccc2nc(N3CC[C@H](NCCO)C3)ccc2c1NC(=O)CC1CCCCC1", "note": "[Example 86, N-[2-[(3S)-3-[(2-Hydroxyethyl)amino]-1-pyrrolidinyl]-6-methyl-5-quinolinyl]-cyclohexaneacetamide]", "melting point": "204 to 207 °C"},
      {"compound": "O=C(CC1CCCCC1)Nc1c(Cl)ccc2nc(N3CC[C@H](NS(=O)(=O)C(F)(F)F)C3)ccc12", "note": "[Example 88, N-[6-Chloro-2-[(3S)-3-[[(trifluoromethyl)sulfonyl]amino]-1-pyrrolidinyl]-5-quinolinyl]-cyclohexaneacetamide]", "melting point": "178 to 200 °C"},
      {"compound": "CS(=O)(=O)NC(=O)N[C@H]1CCN(c2ccc3c(NC(=O)CC4CCCCC4)c(Cl)ccc3n2)C1", "note": "[Example 89, N-[6-Chloro-2-[(3S)-3-[[[(methylsulfonyl)amino]carbonyl]amino]-1-pyrrolidinyl]-5-quinolinyl]-cyclohexaneacetamide]", "melting point": "303 to 307 °C"},
      {"compound": "O=C(CC1CCCCC1)Nc1c(Cl)ccc2nc(N3CC[C@H](NCCc4nnn[nH]4)C3)ccc12", "note": "[Example 101, N-[6-Chloro-2-[(3S)-3-[[2-(2H-tetrazol-5-yl)ethyl]amino]-1-pyrrolidinyl]-5-quinolinyl]-cyclohexaneacetamide]", "melting point": "220 to 221 °C"},
      {"compound": "O=C(CC1CCCCC1)Nc1c(Cl)ccc2nc(N3CCC(c4nsc(=O)[nH]4)CC3)ccc12", "note": "[Example 103, N-[6-Chloro-2-[4-(4,5-dihydro-5-oxo-1,2,4-thiadiazol-3-yl)-1-piperidinyl]-5-quinolinyl]-cyclohexaneacetamide]", "melting point": "275 °C"},
      {"compound": "O=C(CC1CCCCC1)Nc1c(Cl)ccc2nc(CCCCc3nnn[nH]3)ccc12", "note": "[Example 105, N-[6-Chloro-2-[4-(1H-tetrazol-5-yl)butyl]-5-quinolinyl]-cyclohexaneacetamide]", "melting point": "192 to 195 °C"},
      {"compound": "O=C(NCC1CCCCC1)c1c(Cl)ccc2nc(CCCCc3nnn[nH]3)ccc12", "note": "[Example 106, 6-Chloro-N-(cyclohexylmethyl)-2-[4-(1H-tetrazol-5-yl)butyl]-5-quinolinecarboxamide]", "melting point": "90 to 93 °C"},
      {"compound": "O=C(CC1CCCCC1)Nc1c(Cl)ccc2nc(N3CC[C@H](OCCc4nnn[nH]4)C3)ccc12", "note": "[Example 107, N-[6-Chloro-2-[(3S)-3-[2-(1H-tetrazol-5-yl)ethoxy]-1-pyrrolidinyl]-5-quinolinyl]-cyclohexaneacetamide]", "melting point": "177 to 181 °C"},
      {"compound": "O=C(CC1CCCCC1)Nc1c(Cl)ccc2nc(N3CC[C@H](OCCc4noc(=O)[nH]4)C3)ccc12", "note": "[Example 108, N-[6-Chloro-2-[(3S)-3-[2-(4,5-dihydro-5-oxo-1,2,4-oxadiazol-3-yl)ethoxy]-1-pyrrolidinyl]-5-quinolinyl]-cyclohexaneacetamide]", "melting point": "185 to 190 °C"},
      {"compound": "O=C(CC1CCCCC1)Nc1c(Cl)ccc2nc(N3CCC(c4nnn[nH]4)CC3)ccc12", "note": "[Example 109, N-[6-Chloro-2-[4-(1H-tetrazol-5-yl)-1-piperidinyl]-5-quinolinyl]cyclohexane-acetamide]", "melting point": "295 to 300 °C"},
      {"compound": "O=C(NCC1CCCCC1)c1c(Cl)ccc2nc(N3CCC(c4nnn[nH]4)CC3)ccc12", "note": "[Example 110, 6-Chloro-N-(cyclohexylmethyl)-2-[4-(1H-tetrazol-5-yl)-1-piperidinyl]-5-quinolinecarboxamide]", "melting point": "255 to 257 °C"},
      {"compound": "O=C(NCCC1CCCCC1)c1c(Cl)ccc2nc(N3CCC(c4nnn[nH]4)CC3)ccc12", "note": "[Example 111, 6-Chloro-N-(2-cyclohexylethyl)-2-[4-(1H-tetrazol-5-yl)-1-piperidinyl]-5-quinolinecarboxamide]", "melting point": "252 to 255 °C"},
      {"compound": "N#CC1CCN(c2ccc3c(NC(=O)CC4CCCCC4)c(Cl)ccc3n2)CC1", "note": "[Example 113, N-[6-Chloro-2-(4-cyan-1-piperidinyl)-5-quinolinyl]-cyclhexaneacetamide]", "melting point": "235 to 237 °C"},
      {"compound": "O=C(CC1CCCCC1)Nc1c(Cl)ccc2nc(N3CCC(NS(=O)(=O)C(F)(F)F)CC3)ccc12", "note": "[Example 114, N-[6-Chloro-2-[4-[[(trifluoromethyl)sulfonyl]amino]-1-piperidinyl]-5-quinolinyl]-cyclohexaneacetamide]", "melting point": "187 to 189 °C"}
    ]}
  ]
}
